Source: ChEMBL document CHEMBL5316333, “Potent Long-Acting Inhibitors Targeting the HIV-1 Capsid Based on a Versatile Quinazolin-4-one Scaffold” (J Med Chem, 2023)
≈ marks a conversion by molar mass, not a printed value.

Experiments:
[1] = test system: Human immunodeficiency virus 1; experiment: Antiviral activity against HIV-1 NLRep-Rluc infected in human MT2 cells assessed as inhibition of viral growth incubated for 96 hrs by renilla luciferase assay; type: functional, organism-based
[2] = (§1) Cytotoxicity against human MT2 cells assessed as reduction in cell viability incubated for 4 days by XTT assay; type: toxicity, cell-based; conditions: MT2 cells, time 4 day
[3] = Selectivity index, ratio of CC50 for cytotoxicity against human MT2 cells to EC50 for antiviral activity against HIV-1 NLRep-Rluc infected in human MT2 cells; type: toxicity, cell-based; conditions: read-out: Ratio CC50/EC50
[4] = test system: MT2; experiment: as §1; type: toxicity, cell-based; conditions: mt2, 96 h, 96 h, time 4 day
[5] = Clearance in Sprague-Dawley rat at 1 mg/kg, iv and measured upto 96 hrs by LC-MS/MS analysis; type: ADME, organism-based; conditions: in vivo
[6] = Solubility of the compound at pH 2 buffer; type: physicochemical
[7] = Solubility of the compound at pH 6.5 buffer; type: physicochemical
[8] = Solubility of the compound in FaSSGF at pH 1.6; type: physicochemical
[9] = Solubility of the compound in FaSSIF at pH 6.5; type: physicochemical
[10] = Solubility of compound in FeSSIF at pH 5; type: physicochemical
[11] = Plasma concentration in Wistar Han rat at 20 mg/kg, SC and measured at 21 days by LC-MS/MS analysis; type: ADME, organism-based; conditions: time 21 day
[12] = Plasma concentration in Wistar Han rat at 20 mg/kg, IM and measured at 21 days by LC-MS/MS analysis; type: ADME, organism-based; conditions: time 21 day
[13] = Plasma concentration in Beagle dog at 5 mg/kg, IM and measured after 10 days by LC-MS/MS analysis; type: ADME, organism-based, Canis lupus familiaris; conditions: time 10 day
[14] = Plasma concentration in Beagle dog at 5 mg/kg, SC and measured after 10 days by LC-MS/MS analysis; type: ADME, organism-based, Canis lupus familiaris; conditions: time 10 day
[15] = Half life in Wistar Han rat plasma at 1 mg/kg,iv and measured upto 96 hrs by LC-MS/MS analysis; type: ADME, organism-based
[16] = Half life in Wistar Han rat plasma at 20 mg/kg, SC and measured after 21 days by LC-MS/MS analysis; type: ADME, organism-based; conditions: time 21 day
[17] = Half life in Wistar Han rat plasma at 20 mg/kg, IM and measured after 21 days by LC-MS/MS analysis; type: ADME, organism-based; conditions: time 21 day
[18] = AUC (0 to 24) in male Beagle dog at 100 mg/kg, po QD and measured after 1 day by LC-MS/MS analysis; type: ADME, organism-based, Canis lupus familiaris; parameters: dose 100 mg/kg, time 1 day, route po; conditions: in vivo
[19] = AUC (0 to 24) in female Beagle dog at 100 mg/kg, po QD and measured after 1 day by LC-MS/MS analysis; type: ADME, organism-based, Canis lupus familiaris; parameters: time 1 day, dose 100 mg/kg, route po; conditions: in vivo
[20] = AUC (0 to 24) in male Beagle dog at 100 mg/kg, po QD and measured after 7 days by LC-MS/MS analysis; type: ADME, organism-based, Canis lupus familiaris; parameters: dose 100 mg/kg, time 7 day, route po; conditions: in vivo
[21] = AUC (0 to 24) in female Beagle dog at 100 mg/kg, po QD and measured after 7 days by LC-MS/MS analysis; type: ADME, organism-based, Canis lupus familiaris; parameters: dose 100 mg/kg, time 7 day, route po; conditions: in vivo
[22] = Cmax in male Beagle dog at 100 mg/kg, po QD and measured after 1 day by LC-MS/MS analysis; type: ADME, organism-based, Canis lupus familiaris; parameters: time 1 day, dose 100 mg/kg, route po; conditions: in vivo
[23] = Cmax in female Beagle dog at 100 mg/kg, po QD and measured after 1 day by LC-MS/MS analysis; type: ADME, organism-based, Canis lupus familiaris; parameters: dose 100 mg/kg, time 1 day, route po; conditions: in vivo
[24] = Cmax in male Beagle dog at 100 mg/kg, po QD and measured after 7 days by LC-MS/MS analysis; type: ADME, organism-based, Canis lupus familiaris; parameters: dose 100 mg/kg, time 7 day, route po; conditions: in vivo
[25] = Cmax in female Beagle dog at 100 mg/kg, po QD and measured after 7 days by LC-MS/MS analysis; type: ADME, organism-based, Canis lupus familiaris; parameters: time 7 day, dose 100 mg/kg, route po; conditions: in vivo
[26] = Toxicity in male Beagle dog assessed as fold increase in AST level […] at 100 mg/kg, po QD for 7 days relative to baseline pretreatment; type: organism-based, Canis lupus familiaris; conditions: in vivo, 168 h, time 7 day
[27] = Toxicity in male Beagle dog assessed as fold increase in ALT level […] at 100 mg/kg, po QD for 7 days relative to baseline pretreatment; type: organism-based, Canis lupus familiaris; conditions: in vivo, 168 h, time 7 day
[28] = Toxicity in male Beagle dog assessed as fold increase in ALP level […] at 100 mg/kg, po QD for 7 days relative to baseline pretreatment; type: organism-based, Canis lupus familiaris; conditions: in vivo, 168 h, time 7 day
[29] = Toxicity in male Beagle dog assessed as fold increase in GLDH level […] at 100 mg/kg, po QD for 7 days relative to baseline pretreatment; type: organism-based, Canis lupus familiaris; conditions: in vivo, 168 h, time 7 day
[30] = Toxicity in male Beagle dog assessed as fold increase in TBA level […] at 100 mg/kg, po QD for 7 days relative to baseline pretreatment; type: organism-based, Canis lupus familiaris; conditions: in vivo, 168 h, time 7 day
[31] = Toxicity in female Beagle dog assessed as change in AST level at 100 mg/kg, po QD for 7 days relative to baseline pretreatment; type: organism-based, Canis lupus familiaris; conditions: in vivo, 168 h, time 7 day
[32] = Toxicity in female Beagle dog assessed as change in ALT level at 100 mg/kg, po QD for 7 days relative to baseline pretreatment; type: organism-based, Canis lupus familiaris; conditions: in vivo, 168 h, time 7 day
[33] = Toxicity in female Beagle dog assessed as change in ALP level at 100 mg/kg, po QD for 7 days relative to baseline pretreatment; type: organism-based, Canis lupus familiaris; conditions: in vivo, 168 h, time 7 day
[34] = Toxicity in female Beagle dog assessed as change in GLDH level at 100 mg/kg, po QD for 7 days relative to baseline pretreatment; type: organism-based, Canis lupus familiaris; conditions: in vivo, 168 h, time 7 day
[35] = Toxicity in female Beagle dog assessed as change in TBA level at 100 mg/kg, po QD for 7 days relative to baseline pretreatment; type: organism-based, Canis lupus familiaris; conditions: in vivo, 168 h, time 7 day
[36] = Half life in Beagle dog plasma at 5 mg/kg,SC and measured after 21 days by LC-MS/MS analysis; type: ADME, organism-based, Canis lupus familiaris; conditions: time 21 day
[37] = Half life in Beagle dog plasma at 5 mg/kg,IM and measured after 21 days by LC-MS/MS analysis; type: ADME, organism-based, Canis lupus familiaris; conditions: time 21 day
[38] = Toxicity in male Beagle dog assessed as increase in mitotic figures in hepatocytes at 100 mg/kg, po QD for 7 days by microscopy; type: organism-based, Canis lupus familiaris; conditions: in vivo, 168 h, time 7 day
[39] = Toxicity in male Beagle dog assessed as hyperplasia of Kupffer cells at 100 mg/kg, po QD for 7 days by microscopy; type: organism-based, Canis lupus familiaris; conditions: in vivo, 168 h, time 7 day
[40] = Drug metabolism in Beagle dog plasma assessed as metabolite formation at 100 mg/kg, po for 7 days by LC-MS/MS analysis; type: ADME, organism-based, Canis lupus familiaris; conditions: in vivo, 168 h, time 7 day

COc1ccc2nc([C@H](Cc3cc(F)cc(F)c3)NC(=O)Cn3nc(C(F)F)c4c3C(F)(F)[C@@H]3C[C@H]43)n(-c3ccc(Cl)c4c(NS(C)(=O)=O)nn(C)c34)c(=O)c2c1 (stereo in doubt; 12c)
EC50 ([1]; mt2): 0.15 nM | CC50 at 96 h [2]: > 20000 nM | selectivity ratio [3]: > 1000

Cn1nc(NS(C)(=O)=O)c2c(Cl)ccc(-n3c([C@H](Cc4cc(F)cc(F)c4)NC(=O)Cn4nc(C(F)F)c5c4C(F)(F)[C@@H]4C[C@H]54)nc4ccccc4c3=O)c21 (stereo in doubt; 12a)
EC50 ([1]; mt2): 0.049 nM | CC50 [4]: > 20000 nM | selectivity ratio [3]: > 1000 | clearance [5]: 30 mL/min/kg

COc1cccc2nc([C@H](Cc3cc(F)cc(F)c3)NC(=O)Cn3nc(C(F)F)c4c3C(F)(F)[C@@H]3C[C@H]43)n(-c3ccc(Cl)c4c(NS(C)(=O)=O)nn(C)c34)c(=O)c12 (stereo in doubt; 12d)
EC50 ([1]; mt2): 0.11 nM | CC50 [4]: > 20000 nM | selectivity ratio [3]: > 1000

C[C@@H]1CN(c2ccc3c(=O)n(-c4ccc(Cl)c5c(NS(C)(=O)=O)nn(C)c45)c([C@H](Cc4cc(F)cc(F)c4)NC(=O)Cn4nc(C(F)F)c5c4C(F)(F)[C@@H]4C[C@H]54)nc3c2)C[C@H](C)O1
EC50 ([1]; Human immunodeficiency virus 1, NLRep-Rluc, MT2, 96 h): 0.039 nM | clearance [5]: 8.9 mL/min/kg | solubility [6]: < 1 µg/mL | solubility [7]: < 1 µg/mL | solubility [8]: < 1 µg/mL | solubility [9]: < 1 µg/mL | solubility [10]: 22 µg/mL (≈ 24 µM) | concentration at 504 h [11]: 10 ng/mL | concentration at 504 h [12]: 10 ng/mL | concentration at 240 h [13]: < 2.2 ng/mL | concentration at 240 h [14]: < 2.2 ng/mL | half-life [15]: 3.2 h | half-life [16]: 39 h | half-life [17]: 39 h | AUC at 24 h [18]: 3710 ng·h/mL | AUC at 24 h [19]: 1360 ng·h/mL | AUC at 168 h [20]: 299000 ng·h/mL | AUC at 168 h [21]: 6780 ng·h/mL | Cmax [22]: 451 ng/mL | Cmax [23]: 344 ng/mL | Cmax [24]: 13600 ng/mL | Cmax [25]: 1320 ng/mL | fold change (FC) [26]: 4.8 | fold change (FC) [27]: 87 | fold change (FC) [28]: 4.9 | fold change (FC) [29]: 94 | fold change (FC) [30]: 3 | Activity [31]: Non-Toxic | Activity [32]: Non-Toxic | Activity [33]: Non-Toxic | Activity [34]: Non-Toxic | Activity [35]: Non-Toxic | half-life [36]: 39 h | half-life [37]: 39 h | Activity [38]: Toxic | Activity [39]: Toxic | Drug metabolism [40]: Metabolite_Detected

COc1ccc2c(=O)n(-c3ccc(Cl)c4c(NS(C)(=O)=O)nn(C)c34)c([C@H](Cc3cc(F)cc(F)c3)NC(=O)Cn3nc(C(F)F)c4c3C(F)(F)[C@@H]3C[C@H]43)nc2c1 (stereo in doubt; 12b)
EC50 ([1]; mt2): 0.058 nM | CC50 [4]: > 20000 nM | selectivity ratio [3]: > 1000 | clearance [5]: 8.3 mL/min/kg
